Laboratory results as given in US8637494B2, “Method of achieving normoglycemia in diabetics by administration of Withaferin A” (priority 2010, dated 2014).

Legend:
[1] = tested on: inflammatory gene expression in human islets; assay: RT-PCR human inflammation gene array, cytokine-treated islets; format: cell-based
Experimental: (§1) Cytokine & Withaferin A Treatment: After isolation and overnight culture, islets were subjected to an in-vitro model of inflammatory conditions with a cytokine cocktail of the species specific recombinant proteins (1,000 U/mL TNF-α, 1,000 U/mL IFN-γ, and 50 U/mL IL-1β dissolved in human or mouse islet culture media). Islets were treated by Withaferin A co-culture at concentrations ranging from 0.25 to 2.0 μg/mL. Control islets were cultured in the appropriate culture media lacking both the cytokine cocktail and Withaferin A. All islets were cultured in a humidified incubation chamber at 37° C. with 5% CO2 for the indicated time.

[2] = tested on: RANTES, IP10, MIG, IL-1β, iNOS expression in human islets; assay: RT-PCR single gene primer assays, dose and time course in human islets; format: cell-based
Experimental: as §1, with “Islets were treated by Withaferin A co-culture at concentrations ranging from 0.25 to 2.0 μg/mL.” left out

[3] = tested on: MIN6, a mouse beta cell line; assay: RT-PCR gene expression in MIN6 cells; format: cell-based
Experimental: RT-PCR Inflammation Array and Primer Assays: After proper time of treatment, islets were harvested and lysed in lysis buffer (Stratagene, La Jolla Calif.). RNA was purified by Absolutely RNA Miniprep kit (Stratagene) and then reverse transcribed into cDNA by RT2 Firststrand kit (SABiosciences, Frederick Md.). […] The RT-PCR reaction was run in Stratagene MX3000 with following program: 95° C., 10 minutes; 40 cycles of (95° C., 15 second; and 60° C., 60 second). Cycle threshold data was uploaded to a Web-Based PCR Array Data Analysis on SABiociences website and fold change compared to control was analyzed.
Procedure for single gene primer assays was the same except primers of particular genes other than the whole array plate were used.

IP-10 = assay: Flow cytometry, intracellular IP-10 in islets; format: cell-based, human; details: islets treated with cytokine mix + Withaferin A (untreated 4214.15, cytokine mix 18024.08)
Excerpt: (§2) The IP-10 expression level was examined by flow cytometry. After treatment, islets were fixed, permeablized and aliquoted to three tubes staining with anti-IP10.

MCP-1 and IP-10 = assay: Immunohistochemical staining of MCP-1 and IP-10 (HRP/DAB); format: cell-based, human; details: Withaferin A and cytokine treatment vs cytokine treatment
Experimental: Immunohistochemical Staining: After culture, islets were embedded in OCT compound, flash frozen in liquid nitrogen and stored at −80° C. until sectioning. Nine μm sections of embedded islets were taken and stained for IP-10 (1:100), MCP-1 (1:20), or insulin (1:75) using standard immunohistochemical techniques. Staining was visualized using an HRP-conjugated secondary antibody conjugated with diaminobenzidine (DAB). Samples were then counterstained with hematoxylin, dehydrated and mounted. Images were acquired.
as §2

[4] = tested on: MCP-1 and IP-10 in human islets; assay: Fluorescent immunohistochemistry, mean fluorescent intensity of MCP-1 and IP-10; format: cell-based; details: cytokine cocktail + 0.5 μg/mL Withaferin A, 24 hours
Experimental: Islet sections were captured under similar conditions and mean fluorescent intensity values were measured. […] Significant differences between mean values groups as determined by Turkey-Kramer post-hoc tests are indicated by an asterisk (*p<0.05) above bars;
Immunohistochemistry: Engrafted livers and cytokine treated islets were preserved in 10% formalin, embedded in paraffin and sectioned at 5 μm. Tissue sections were deparaffinized in xylene (twice for 5 minutes) and series of ethanol gradients (100%, 95%, 90%, 80%, 70%, and 50% ethanol diluted with water for 2 minutes each). Next, sections were heated at 98° C. in 1× Antigen Retrieval Reagent-Universal (R&D Systems) for 20 minutes. Then tissue samples were blocked for non-specific bonding by AquaBlock (EastCoast Bio) for 1 hour at room temperature. Next the primary antibody, diluted in a background reducing antibody diluent, was applied overnight at 4° C. Next, the appropriate fluorescently conjugated secondary antibody (diluted 1000×) was applied for 1 hour at room temperature protected from light. […] Micrographs were imported to Image J, converted to 8-bit grayscale photos, then the mean fluorescence intensity was measured by limiting the region of interest to a single islet via the thresholding function of the program. Mean fluorescent intensity is calculated at the integrated density divided by the area in the region of interest.

human islets [5] = assay: Glucose stimulated static incubation assay, human islets; details: for stimulation index, human islets: 24 hours, no cytokines (control 3.11±1.53)
Experimental: as §1
(§3) Glucose Stimulated Static Incubation Assay: Islets in each experimental condition were incubated with low (2.8 mM) and then high (20.0 mM) concentrations of glucose solution in Functionality/Viability Medium CMRL1066 (Mediatech, Inc. Manassas, Va.) for 1 hour each at 37° C. Insulin concentrations were measured by an insulin ELISA kit (ALPCO Diagnostics, Salem, N.H.). The insulin secretion levels were normalized by total DNA of the stimulated islets. Studies were performed in triplicate with 10 islets in each group.

mouse islets [6] = assay: Glucose stimulated static incubation assay, mouse islets
Experimental: as §1, §3

human islets [7] = assay: Viability determination by Hoechst 342/PI, human islets; format: cell-based; details: for viability of human islets exposed to cytokines: 24 hours (cytokines 85.8±3.9%, control 93.5±3.2%)
Experimental: (§4) FIGS. 5A-5D show the optimal Withaferin A dosing is found without toxicity to islets: Human (5A and 5B) and mouse (5C and 5D) islets were cultured with Withaferin A. Samples were taken at 24 and 48 hours and stained with Hoechst 342 (all nuclei) and propidium iodide (necrotic nuclei). The percent viability was determined as the PI^+ area subtracted from the total area (Hoe342 stained). The optimal Withaferin A dose was determined to be 1.0 μg/mL Withaferin A for human islets (5A) and 0.5 μg/mL for mouse islets (5C). Asterisks above bars indicate statistically significant differences in mean values (*p<0.05 for 48 h and **p<0.001 for 24 and 48 hours) between controls and islets exposed to Withaferin A based on two-tailed Student's t test; N=10;
(§5) Viability Determination by Hoechst 342/PI: For immediate in vitro determination of necrosis, islets were incubated with Hoechst 342 (10 μg/mL) and propidium iodide (20 μg/mL) for 10 minutes at 37° C. before imaging via fluorescent microscopy. Fluorescent microsgraphs were merged in Image J (NIH Bethesda, Md.) and the propidium iodide positive area was divided by the Hoechst 342 positive area to provide a calculation of islet viability.

mouse islets [8] = assay: Viability determination by Hoechst 342/PI, mouse islets; format: cell-based; details: for viability of mouse islets exposed to cytokines: 24 hours (cytokines 78.1±11.6%, control 93.3±2.9%)
Experimental: as §4
Mouse Isolation: Islets were isolated from male inbred B6 […] mice (C57BL/6N Inbred Mice, Harlan Labs). Collagenase type V (Sigma, C9263) (2 mg/mL) was injected through the common bile duct into the pancreas. Mouse pancreata were digested by incubation at 37° C. for 28 minutes. After washing, the islets were purified with a discontinuous Ficoll based gradient (1.085 g/mL, 1.077 g/mL, and Cap of DMEM) and centrifugation at 1000 rpm for 10 minutes. Purified islets were further purified in a 65 mm dish in DMEM by removing acinar cells to a purity of greater than 95%. Islets were cultured in DMEM supplemented with Kanamycin and 0.1% BSA, mouse islet culture media.
as §5

[9] = tested on: IκB in human islets and β-cell lines; assay: Western blotting of IκB after cytokine cocktail; format: cell-based; details: cytokines 20 min
Experimental: Graphical representations (6B) are expressed as means±STD. Asterisks above bars indicate statistically significant differences in mean values (*p<0.05, **p<0.01, ***p<0.001) between treatments and controls (black bars) for each cell type based on two-tailed Student's t test;
Western Blotting: Cells were treated with cytokines for 20 min, then harvested in lysis buffer containing 50 mM HEPES, pH 7.5, 150 mM NaCl, 1% Triton X-100, 0.2 mg/mL phenylmethylsulfonyl fluoride (PMSF), 0.1 M NaF, 2 mM Na3VO4, 10 μg/mL aprotinin, 5 μg/mL pepstatin A, and 5 μg/mL leupeptin. Proteins were subjected to SDS/polyacrylamide gel electrophoresis and electrotransferred to nitrocellulose membranes. Membranes were blocked with 5% milk in Tris-buffered saline containing 0.1% Tween-20 (TBST) pH 7.4 for 2 hours, incubated with primary antibody for 1 hour at 4° C., and washed three times with TBST. Primary antibodies were IkB-α (C-21) (Santa Cruz) and ERK1/2 as described.^21 Membranes were then incubated with secondary antibodies conjugated to DyLight 680 and 800 fluorescent dyes (Cell Signaling) to detect proteins using an ODYSSEY Infrared Imaging System (LI-COR).

[10] = tested on: NF-κB p65 in human β cells; assay: p65 translocation assay; format: cell-based; details: 24 hours (control 21.6±5.3%, cytokines 41.3±13.5%)
Experimental: Graphical representations (7B) are expressed as means±STD. Asterisks above bars indicate significant differences in mean values (*p<0.05) as determined by Turkey-Kramer post-hoc tests;
p65 Translocation Assay: NF-κB, p65, translocation was determined by overlap of Alexa-488 labeled NF-κB and DAPI stained nuclei, pseudocolored red by Image J for visualization. […] Nuclei positive for activated NF-κB translocation was counted in insulin positive cells and divided by the total number of beta-cells.
To determine whether NF-κB has been activated and moved to the nucleus, immunohistochemistry was performed to locate the p65 portion of NF-κB as described elsewhere.^12 All nuclei in insulin positive human β cells were counted and when NF-κB was stained in the nucleus it was classified NF-κB^+ and nuclei without NF-κB were classified NF-κB^− (FIG. 7A). Percent NF-κB activation was measured at 24 hours after culture with the cytokine cocktail and Withaferin A (FIG. 7B).

[11] = tested on: G-CSF, IL-2, IL-6, IL-8, IP-10, MCP-1, IL-1α, TNF-α, MIP-1α, MIP-1β secreted by human islets; assay: Secreted inflammatory cytokines and chemokines (Luminex); format: cell-based; details: 96 hours
Experimental: Supernatant was collected and analyzed in duplicate with Millipore's human cytokine detection kit in the Luminex 200®. Results were standardized to the number of islets. Graphical representations are expressed as means±STD. Significant differences between mean values groups as determined by Turkey-Kramer post-hoc tests are indicated by an asterisk (*p<0.05) above bars;
Measurement of Secreted Inflammatory Cytokines and Chemokines: Fifty human islets were cultured in human islet culture media for 96 hours with the cytokine and Withaferin A treatment. Secretion of proinflammatory cytokines was determined by measuring cell culture supernatant in a Luminex 200 with a human inflammatory cytokine MagPlex kit (Millipore, Billerica, Mass.). The bead assay was performed according to the manufacturer's instructions with samples in duplicate.
In this study cell culture supernatants from human islets exposed to cytokines and Withaferin A was evaluated by a multiplex bead assay using Luminex® technology. The cell culture supernatant from which the samples were taken for Luminex analysis contained fifty, pure, hand-picked human islets, which had been cultured at 22° C. for over a week to decrease resident macrophage numbers that might interfere (N=10).

human β cells = assay: TUNEL assay on sections, cytokine mediated beta cell apoptosis; format: cell-based; details: cytokine + 1.0 μg/mL, twenty four hours, vs control
Experimental: Islets were protected from cytokine damage by Withaferin A at both time points. Islet potency was assessed by stimulation index after 24 hours. […] Graphical representations (10E-10G) are expressed as means±STD. Significant differences between mean values groups as determined by Turkey-Kramer post-hoc tests are indicated by an asterisk (*p<0.05) above bars; and
TUNEL Assay: The TUNEL assay was performed with ApopTag® fluorescein in situ apoptosis detection kit. After deparaffinization of samples, antigen retrieval was performed with proteinase K and insulin staining was performed as described previously. Next, digoxigenin labeled nucleotides were added to DNA fragments by the enzyme terminal deoxynucelotidyl transferase (TdT) by incubation at 37° C. for 1 hour. Fluorescein labeled anti-digoxigenin antibodies are bound to the digoxigenin by incubation at room temperature for 30 minutes. Lastly DAPI is stained as described above, and slides are mounted with VecataShield and visualized with fluorescent microscopy. Apoptotic cells are counted as those that appear fluorescently green in the nuclei of insulin positive cells. All nuclei of insulin positive cells were counted and percentage of TUNEL^+ cells was calculated as number of TUNEL positive nuclei divided by the total number of insulin positive beta cells. At least 300 nuclei were counted for each condition. […]

[12] = In vivo intraportal syngeneic islet transplant in STZ diabetic mice; set-up: species or system C57BL/6 mice
Experimental: Intraperitoneal glucose tolerance test was performed on day 30 post transplant to assess glycemic control of Withaferin A-treated and vehicle-treated (11E) mice; also naïve and STZ-induced diabetic mice were challenged with glucose for comparison. After 12-14 hours of fasting, mice were injected with a 5% glucose solution (1 mg/kg body weight) and blood glucose levels were monitored at 0, 30, and 120 minutes afterwards. […] After thirty days, hepatectomy of recipient mice was performed and the liver was fixed in formalin, embedded in paraffin and stained for insulin (11F) and H&E (11G).
In-vivo Intraportal Transplant: Diabetes was induced in by injecting streptozomycin (STZ 180 mg/kg, 9 mg/mL dissolved in DPBS) into the tail vein. Accu-Chek Aviva® (Roche Diagnostics, Indianapolis, Ind.) was used to monitor blood glucose from the tail vein, and mice were considered diabetic, when their blood glucose was measured as greater than 350 dg/mL for two days in a row. Mice were anesthetized with avertin (20 mg/mL, 0.5 mL/mouse), then two hundred islets were injected into the portal vein by puncturing the portal vein through the pancreas with a 27 gauge, hypodermic needle attached to a glass syringe. The peritoneum was first closed with 5-0 black silk sutures, and before sealing this closure, Withaferin A (25 ug, 0.5 mL/mouse) or vehicle (DPBS) was injected into the peritoneal space. […]
To determine only the anti-inflammatory effects of Withaferin A on islet transplantation, a syngeneic model was used. […] It was determined that 400 islets are required for successful transplantation into the portal vein of the liver for mice.
Daily intraperitoneal injections of Withaferin A (25 μg, 0.5 mL/mouse) for seven days post-transplant beginning immediately after islet infusion were performed on six mice. […] After 12 to 14 hours of fasting, mice were injected with a 5% glucose solution (2 mg/kg body weight) and blood sugar levels were measured at zero, thirty, and one hundred twenty minutes after the injection.

[13] = IPGTT on day 30 post transplant; format: in vivo, C57BL/6 mice
Experimental: Intraperitoneal glucose tolerance test was performed on day 30 post transplant to assess glycemic control of Withaferin A-treated and vehicle-treated (11E) mice; also naïve and STZ-induced diabetic mice were challenged with glucose for comparison. After 12-14 hours of fasting, mice were injected with a 5% glucose solution (1 mg/kg body weight) and blood glucose levels were monitored at 0, 30, and 120 minutes afterwards.
IPGTT: Naïve, transplanted, and STZ induced diabetic mice were used to perform an intraperitoneal glucose tolerance test. The mouse's food was removed for 12-14 hours, then an injection of glucose (1 mg/kg body weight, 5% glucose solution in DPBS) was administered intraperitoneally. Blood glucose was monitored with Accu-Chek at 0, 30, and 120 minutes after the injection.
To evaluate the islet graft function, IPGTT was performed on cured mice and vehicle treated mice on day 30. To control for the pattern in islet function, naïve and STZ-induced diabetic mice were tested as well. After 12 to 14 hours of fasting, mice were injected with a 5% glucose solution (2 mg/kg body weight) and blood sugar levels were measured at zero, thirty, and one hundred twenty minutes after the injection.

[14] = tested on: inflammatory cytokines and chemokines (iNOS, IL-1β, RANTES, MIG, IP-10) in human islets; details: human islets exposed to inflammatory cytokines, qPCR; cited from earlier work
islets [15] = assay: FDA/PI staining islet viability, dose effect study; details: 48 hours culture
Experimental: Viability was assessed using fluorescein diacetate (FDA) and propidium iodide (PI). Islets used for the studies were 80 to 90% viable, with a purity of 60 to 85%. Human islets used were handpicked to greater than 95% purity. Islets were cultured with CMRL-based human islet culture media containing 0.1% BSA with Kanamycin at 37° C.
The viability and apoptosis test of islet with four different concentrations of Withaferin A (0.5 μg/mL, 1 μg/mL, 2 μg/mL and 4 μg/mL) was examined. FDA/PI staining was used to determine the islet viability.

islets [16] = assay: TUNEL assay, FITC positive population, dose effect study
Experimental: The present inventors conducted a dose effect study of Withaferin A on islets. […] The viability and apoptosis test of islet with four different concentrations of Withaferin A (0.5 μg/mL, 1 μg/mL, 2 μg/mL and 4 μg/mL) was examined. FDA/PI staining was used to determine the islet viability.

SMILES: CC1=C(CO)C(=O)O[C@@H]([C@@H](C)[C@H]2CC[C@H]3[C@@H]4C[C@H]5O[C@]56[C@@H](O)C=CC(=O)[C@]6(C)[C@H]4CC[C@]23C)C1 [Withaferin A]
- inflammatory gene expression, Withaferin A treated group vs control ([1]; Withaferin A alone, no cytokines): no significant difference
- inflammatory gene expression, cytokine and Withaferin A group vs cytokine alone group ([1]; human islets, FIG. 1B): significantly down regulated
- inhibition of inflammatory gene expression (FIG. 1C) ([1]; human islets, cytokine cocktail + Withaferin A vs cytokine alone, all three donors): 60%-100
- expression level of IL-1β, RANTES, MIG and IP-10 vs cytokine alone ([2]; 1 μg Withaferin A and cytokines, 12, 24, 36 and 48 hour): significantly inhibited
- expression of RANTES, IP10, MIG, IL-1β and iNOS ([2]; 0.5, 1, 2 and 4 μg per mL with cytokines): decreased with the increase in Withaferin A concentration
- IP10, RANTES and MCP-1 expression upregulated by cytokine treatment [3]: could be inhibited
- IP-10 mean channel fluorescence (IP-10): 7318.94 (+/−78.21)
- intensity of MCP-1 staining and IP-10 staining (MCP-1 and IP-10): decreased the intensity
- IP-10 and MCP-1 levels within beta cells (mean fluorescent intensity) [4]: near control levels
- stimulation index, human islets (human islets [5]; 0.5 μg/mL): 3.52±1.97
- Stimulation Index vs control group (human islets [5]; 1 μg/mL Withaferin A, no cytokines (FIG. 4D)): no significant difference
- stimulation index, human islets (human islets [5]; 1.0 μg/mL): 4.21±0.41
- stimulation index, human islets exposed to cytokines (human islets [5]; cytokines + 1.0 μg/mL, twenty four hours (cytokines 1.59±0.34, control 3.10±1.53)): 2.20±0.61
- stimulation index, mouse islets (mouse islets [6]; 0.5 μg/mL, 24 hours, no cytokines (control 11.13±9.28)): 7.05±2.20
- stimulation index, mouse islets exposed to cytokines (mouse islets [6]; cytokines with or without Withaferin A, twenty four hours): did not show any significant differences
- viability of human islets (human islets [7]; 0.5 μg/mL, 48 hours, no cytokines (control 91.8±7.4%)): 89.0±4.6%
- viability of human islets (human islets [7]; 1.0 μg/mL, 48 hours, no cytokines (control 91.8±7.4%)): 91.9±3.5%
- viability of human islets (human islets [7]; 2.0 μg/mL, 24 hours, no cytokines (control 94.9±4.5%)): 70.5±8.8%
- viability of human islets exposed to cytokines (human islets [7]; cytokine cocktail + 0.5 μg/mL): 92.6±5.1%
- viability of human islets exposed to cytokines (human islets [7]; cytokine cocktail + 1.0 μg/mL): 94.6±2.9%
- optimal Withaferin A dose without toxicity to islets (human islets [7]; human islets, 24 and 48 hours): 1.0 µg/mL
- viability of mouse islets (mouse islets [8]; 0.25 μg/mL, 48 hours, no cytokines (control 93.8±8.0%)): 90.1±6.6%
- viability of mouse islets (mouse islets [8]; 0.5 μg/mL, 48 hours, no cytokines (control 93.8±8.0%)): 94.6±4.4%
- viability of mouse islets (mouse islets [8]; 1.0 μg/mL, no cytokines, time not printed (control 97.3±2.2%)): 87.8±11.1%
- viability of mouse islets exposed to cytokines (mouse islets [8]; cytokine cocktail + 0.25 μg/mL): 89.7±5.9%
- viability of mouse islets exposed to cytokines (mouse islets [8]; cytokine cocktail + 0.5 μg/mL): 89.9±3.6%
- optimal Withaferin A dose without toxicity to islets (mouse islets [8]; mouse islets, 24 and 48 hours): 0.5 µg/mL
- IκB protein relative to ERK1/2 after cytokine cocktail [9]: prevented the reduction of IκB
- percent NF-κB+ insulin positive cells ([10]; cytokine cocktail + 0.5 μg/mL): 19.5±8.1%
- percent NF-κB+ cells ([10]; cytokine cocktail + 1.0 μg/mL): 10.0±4.1%
- secreted inflammatory molecules ([11]; 1.0 μg/mL, cytokines, p<0.05): significant decrease
- secreted levels of inflammatory cytokines and chemokines ([11]; human islets, cytokines + Withaferin A): decreased secreted levels of each molecule
- cytokine induced β cell apoptosis (TUNEL positive staining) (human β cells): totally cancel any effect of cytokines on β cell apoptosis
- success rate (recipients achieving normoglycemia) ([12]; 200 islet isograft, 25 μg i.p. daily for 7 days (vehicle 0%)): 83%
- mice with amelioration of diabetes / mice treated ([12]; 200 islet isograft, 25 μg i.p. daily for 7 days (vehicle 0/5)): 5/6
- ideal dose in the in vivo mouse model ([12]; doses from 2.5 to 50 μg/mouse tested): 25 µg
- blood glucose, IPGTT ([13]; 0 minutes, day 30 (vehicle 485±95.4)): 150.3 ± 89.2 mg/dL
- blood glucose, IPGTT ([13]; 30 minutes, day 30 (vehicle 523.8±95.3)): 267.8 ± 84.8 mg/dL
- decrease of mRNA levels of several chemokines [14]: ten-fold or more
- islet viability (FDA/PI) (islets [15]; 0.5 μg/mL): not decreased
- islet viability (FDA/PI) (islets [15]; 1 μg/mL): not decreased
- islet viability (FDA/PI) (islets [15]; 2 μg/mL): slight decrease
- islet viability (FDA/PI) (islets [15]; 4 μg/mL): significant loss
- FITC positive population (apoptosis cells) (islets [16]; 2 μg/mL): small increase
- FITC positive population (apoptosis cells) (islets [16]; 4 μg/mL): dramatic increase
- percentage of FITC positive population (apoptosis cells) (islets [16]; low Withaferin A dose samples (0.5 and 1 μg/mL)): close to zero
